In experiment [1] the test system is Proteus mirabilis. Put plainly: Antimicrobial activity against Proteus mirabilis TUM4660 by broth dilution method. In kind it is functional. (In general: In broth dilution the organism is exposed to a series of concentrations in liquid medium.)
For experiment [2], the system named is Escherichia coli. Put plainly: Antimicrobial activity against Escherichia coli TUM4670 by broth dilution method. It is filed as functional.
Experiment [3] relates to Escherichia coli. Put plainly: Antimicrobial activity against Escherichia coli TUM4672 by broth dilution method.
Experiment [4] deals with Escherichia coli. Put plainly: Antimicrobial activity against Escherichia coli ML4909 by broth dilution method. In kind it is functional.
The subject of experiment [5] is Escherichia coli. Put plainly: Antimicrobial activity against Escherichia coli ML4901 by broth dilution method. It is filed as functional.
For experiment [6], the system named is Proteus mirabilis. Put plainly: Antimicrobial activity against Proteus mirabilis TUM4660 by broth dilution method in presence of beta-lactamase inhibitor clavulanic acid. It is filed as functional.
Experiment [7] deals with Escherichia coli. Put plainly: Antimicrobial activity against Escherichia coli TUM4670 by broth dilution method in presence of beta-lactamase inhibitor clavulanic acid.
Experiment [8] concerns Escherichia coli. The experiment in a line: Antimicrobial activity against Escherichia coli TUM4672 by broth dilution method in presence of beta-lactamase inhibitor clavulanic acid.
Experiment [9] relates to Escherichia coli. Put plainly: Antimicrobial activity against Escherichia coli ML4909 by broth dilution method in presence of beta-lactamase inhibitor clavulanic acid. It is filed as functional.
Experiment [10] concerns Escherichia coli. The experiment in a line: Antimicrobial activity against Escherichia coli ML4901 by broth dilution method in presence of beta-lactamase inhibitor clavulanic acid. It is filed as functional.
The subject of experiment [11] is Proteus mirabilis. Put plainly: Antimicrobial activity against Proteus mirabilis TUM4660 by broth dilution method in presence of beta-lactamase inhibitor Tazobactam. It is filed as functional.
Experiment [12] relates to Escherichia coli. Put plainly: Antimicrobial activity against Escherichia coli TUM4670 by broth dilution method in presence of beta-lactamase inhibitor Tazobactam. In kind it is functional.
For experiment [13], the system named is Escherichia coli. The experiment in a line: Antimicrobial activity against Escherichia coli TUM4672 by broth dilution method in presence of beta-lactamase inhibitor Tazobactam. It is filed as functional.
Experiment [14] has as its system Escherichia coli. The experiment in a line: Antimicrobial activity against Escherichia coli ML4909 by broth dilution method in presence of beta-lactamase inhibitor Tazobactam. In kind it is functional.
Experiment [15] relates to Escherichia coli. The experiment in a line: Antimicrobial activity against Escherichia coli ML4901 by broth dilution method in presence of beta-lactamase inhibitor Tazobactam. In kind it is functional.
Experiment [16] has as its system Proteus mirabilis. The experiment in a line: Antimicrobial activity against Proteus mirabilis TUM4660 by disk diffusion method in presence of 300 ug 3-aminophenyl-boronic acid. It is filed as functional. (In agar diffusion tests the substance spreads into inoculated agar from a disc or well.)

In brackets after ≈: the same amount, converted by molar mass.

One may read the MIC as the smallest concentration in the dilution series that meets the test's criterion for growth inhibition. Regarding `CO/N=C(\C(=O)N[C@@H]1C(=O)N2C(C(=O)O)=C(COC(C)=O)CS[C@H]12)c1csc(N)n1` [CEFOTAXIME], the MIC in the experiment with Proteus mirabilis [1] was 8 µg/mL (≈ 17.6 µM); with Escherichia coli [2], 16 µg/mL (≈ 35.1 µM); in the experiment with Escherichia coli [3], 32 µg/mL (≈ 70.3 µM); against Escherichia coli [4] it was not above 0.06 µg/mL; against Escherichia coli [5], not above 0.06 µg/mL; in the experiment on Proteus mirabilis [6] it was 16 µg/mL. The MIC with Escherichia coli [7] is 32 µg/mL; in the experiment on Escherichia coli [8], 64 µg/mL; in the experiment on Escherichia coli [9], not above 0.06 µg/mL; in the experiment with Escherichia coli [10], not above 0.06 µg/mL.

Regarding `CC1(C)S[C@@H]2[C@H](NC(=O)[C@H](N)c3ccc(O)cc3)C(=O)N2[C@H]1C(=O)O` [AMOXICILLIN], the MIC was more than 128 µg/mL in the experiment on Proteus mirabilis [1]; more than 128 µg/mL against Escherichia coli [2]; more than 128 µg/mL in the experiment on Escherichia coli [3]; 2 µg/mL (≈ 5.47 µM) in the experiment on Escherichia coli [4]; 4 µg/mL (≈ 10.9 µM) in the experiment with Escherichia coli [5]; more than 128 µg/mL with Proteus mirabilis [6]. For the same molecule, the MIC with Escherichia coli [7] was more than 128 µg/mL; in the experiment with Escherichia coli [8] it was more than 128 µg/mL; in the experiment with Escherichia coli [9] it was 2 µg/mL; with Escherichia coli [10], 4 µg/mL.

Take `CO[C@@]1(NC(=O)Cc2cccs2)C(=O)N2C(C(=O)O)=C(COC(N)=O)CS[C@@H]21` [CEFOXITIN]: the MIC in the experiment with Proteus mirabilis [1] is 128 µg/mL (≈ 299 µM); against Escherichia coli [2], 128 µg/mL (≈ 299 µM); with Escherichia coli [3], more than 128 µg/mL; in the experiment on Escherichia coli [4], 4 µg/mL (≈ 9.36 µM); against Escherichia coli [5], 2 µg/mL (≈ 4.68 µM).

`COc1cc(Cc2cnc(N)nc2N)cc(OC)c1OC` [TRIMETHOPRIM]: the minimal inhibitory concentration (MIC) against Proteus mirabilis [1] is 4 µg/mL (≈ 13.8 µM); with Escherichia coli [2], not above 0.06 µg/mL; with Escherichia coli [3] it was not above 0.06 µg/mL; against Escherichia coli [4], 0.12 µg/mL (≈ 0.413 µM); against Escherichia coli [5] it was not above 0.06 µg/mL.

`CCN1CCN(C(=O)N[C@@H](C(=O)N[C@@H]2C(=O)N3[C@@H]2SC(C)(C)[C@@H]3C(=O)O)c2ccccc2)C(=O)C1=O` [PIPERACILLIN]: the MIC is more than 128 µg/mL in the experiment on Proteus mirabilis [1]; more than 128 µg/mL with Escherichia coli [2]; more than 128 µg/mL in the experiment on Escherichia coli [3]; 2 µg/mL (≈ 3.86 µM) against Escherichia coli [4]; 2 µg/mL (≈ 3.86 µM) against Escherichia coli [5]; 16 µg/mL in the experiment on Proteus mirabilis [11]. Also, the MIC is more than 128 µg/mL in the experiment with Escherichia coli [12], more than 128 µg/mL in the experiment with Escherichia coli [13], 2 µg/mL in the experiment on Escherichia coli [14] and 2 µg/mL in the experiment on Escherichia coli [15].

On to `CO/N=C(\C(=O)N[C@@H]1C(=O)N2C(C(=O)[O-])=C(C[N+]3(C)CCCC3)CS[C@H]12)c1csc(N)n1`, for which the MIC is 2 µg/mL (≈ 4.16 µM) against Proteus mirabilis [1], 1 µg/mL (≈ 2.08 µM) against Escherichia coli [2], 2 µg/mL (≈ 4.16 µM) against Escherichia coli [3] and not above 0.06 µg/mL in the experiment with Escherichia coli [4].

Regarding `O=C(O)c1cn(C2CC2)c2cc(N3CCNCC3)c(F)cc2c1=O` [CIPROFLOXACIN], the MIC in the experiment on Proteus mirabilis [1] is 0.12 µg/mL (≈ 0.362 µM); in the experiment on Escherichia coli [2], not above 0.06 µg/mL; against Escherichia coli [3], not above 0.06 µg/mL; in the experiment on Escherichia coli [4] it was not above 0.06 µg/mL; against Escherichia coli [5], not above 0.06 µg/mL.

With `C[C@@H](O)[C@H]1C(=O)N2C(C(=O)O)=C(SCCNC=N)C[C@H]12` [IMIPENEM ANHYDROUS], the MIC in the experiment with Proteus mirabilis [1] worked out at 8 µg/mL (≈ 26.7 µM); in the experiment on Escherichia coli [2], 0.25 µg/mL (≈ 0.835 µM); against Escherichia coli [3] it was 0.25 µg/mL (≈ 0.835 µM).

For GENTAMICIN, the MIC was 1 µg/mL with Proteus mirabilis [1], 1 µg/mL with Escherichia coli [2], 2 µg/mL with Escherichia coli [4] and 2 µg/mL in the experiment with Escherichia coli [5].

As to `CC(C)(O/N=C(\C(=O)N[C@@H]1C(=O)N2C(C(=O)[O-])=C(C[n+]3ccccc3)CS[C@H]12)c1csc(N)n1)C(=O)O` [CEFTAZIDIME], the MIC in the experiment with Proteus mirabilis [1] amounted to 16 µg/mL (≈ 29.3 µM); against Escherichia coli [2], 128 µg/mL (≈ 234 µM); with Escherichia coli [3] it was 128 µg/mL (≈ 234 µM); with Escherichia coli [4], 0.25 µg/mL (≈ 0.457 µM); against Escherichia coli [5], 0.25 µg/mL (≈ 0.457 µM); in the experiment on Proteus mirabilis [6], 16 µg/mL. Further, the MIC is 32 µg/mL in the experiment with Escherichia coli [7], 64 µg/mL in the experiment with Escherichia coli [8], 0.12 µg/mL with Escherichia coli [9] and not above 0.06 µg/mL in the experiment with Escherichia coli [10]. The “diameter of the inhibition zone (DIZ)” value in the experiment on Proteus mirabilis [16] is listed as more than 5 mm.

The values are drawn from ChEMBL document CHEMBL1649318, “Chromosomally encoded blaCMY-2 located on a novel SXT/R391-related integrating conjugative element in a Proteus mirabilis clinical isolate” (2010).
